These results are taken from patent publication US11298367B2, “Prodrugs of substituted triazole derivatives and uses thereof” (Bayer Aktiengesellschaft, priority 2017, dated 2022).

The structures appear in SMILES notation.

Experiment [1] deals with T1, human V2 receptor (Homo sapiens, UniProt P30518).
T1 construct: expressed in transfected cells; host or cells: CHO K1 cells expressing firefly luciferase under a CRE-responsive promoter
Briefly: Cellular in vitro assay for vasopressin receptor activity (V2, CRE-luciferase). In kind it is cell-based. Particulars: CHO cell line with human V2 receptor, [Arg8]-vasopressin at EC50; values are for the prodrug as such; read-out: IC50 hV2. As to the method:
(§1) B-1. Cellular In Vitro Assay for Determining Vasopressin Receptor Activity
(§2) The identification of agonists and antagonists of the V1a and V2 vasopressin receptors from humans, rats and dogs as well as the quantification of the activity of the compounds of the invention is carried out using recombinant cell lines. These cell lines originally derive from a hamster's ovary epithelial cell (Chinese Hamster Ovary, CHO K1, ATCC: American Type Culture Collection, Manassas, Va. 20108, USA). The test cell lines constitutively express the human, rat or dog V1a or V2 receptors. In case of the Gaq-coupled V1a receptors, cells are also stably transfected with a modified form of the calcium-sensitive photoproteins aequorin (human and rat V1a) or obelin (dog V1a), which, after reconstitution with the cofactor coelenterazine, emit light when there are increases in free calcium concentrations [Rizzuto R, Simpson A W, Brini M, Pozzan T, Nature 358, 325-327 (1992); Illarionov B A, Bondar V S, Illarionova V A, Vysotski E S, Gene 153 (2), 273-274 (1995)]. The resulting vasopressin receptor cells react to stimulation of the recombinantly expressed Via receptors by intracellular release of calcium ions, which can be quantified by the resulting photoprotein luminescence. The Gs-coupled V2 receptors are stably transfected into cell lines expressing the gene for firefly luciferase under control of a CRE-responsible promoter. Activation of V2 receptors induces the activation of the CRE-responsive promoter via cAMP increase, thereby inducing the expression of firefly luciferase. The light emitted by photoproteins of V1a cell lines as well as the light emitted by firefly luciferase of V2 cell lines corresponds to the activation or inhibition of the respective vasopressin receptor. The bioluminescence of the cell lines is detected using a suitable luminometer [Milligan G, Marshall F, Rees S, Trends in Pharmacological Sciences 17, 235-237 (1996)].
Vasopressin V2 Receptor Cell Lines:
On the day before the assay, the cells are plated out in culture medium (DMEM/F12, 2% FCS, 2 mM glutamine, 10 mM HEPES) in 384-well microtiter plates and kept in a cell incubator (96% humidity, 5% v/v CO2, 37C). On the day of the assay, test compounds in various concentrations and the agonist [Arg^8]-vasopressin at EC50 concentration are added together to the wells, and plates are incubated for 3 hours in a cell incubator. Upon addition of the cell lysis reagent Triton™ and the substrate luciferin, luminescence of firefly luciferase is measured in a luminometer.
(§3) Table 1A below lists individual IC50 values for the compounds of the invention (including racemic mixtures as well as separated enantiomers) that were obtained from cell lines transfected with the human V1a or V2 receptor. This means these IC50 values are the values for the prodrug and not for the underlying respective drug as the prodrug is mainly stable under the assay conditions.

For experiment [2], the target named is T2, human V1a receptor (Homo sapiens, UniProt P37288).
T2 construct: expressed in transfected cells; host or cells: CHO K1 (Chinese hamster ovary), also stably transfected with a modified aequorin
Briefly: Cellular in vitro assay for vasopressin receptor activity (V1a, aequorin luminescence). The following applies: for IC50: CHO cell line with human V1a receptor, [Arg8]-vasopressin at EC50, values are for the prodrug as such, read-out: IC50 hV1a; for ratio IC50 hV2/hV1a: selectivity ratio hV2/hV1a. In kind it is cell-based. The procedure: as §1, §2
Vasopressin V1a Receptor Cell Lines:
On the day before the assay, the cells are plated out in culture medium (DMEM/F12, 2% FCS, 2 mM glutamine, 10 mM HEPES, 5 μg/ml coelenterazine) in 384-well microtiter plates and kept in a cell incubator (96% humidity, 5% v/v CO2, 37C). On the day of the assay, test compounds in various concentrations are placed for 10 minutes in the wells of the microtiter plate before the agonist [Arg^8]-vasopressin at EC50 concentration is added. The resulting light signal is measured immediately in a luminometer.
as §3

T1 sequence (P30518 whole entry): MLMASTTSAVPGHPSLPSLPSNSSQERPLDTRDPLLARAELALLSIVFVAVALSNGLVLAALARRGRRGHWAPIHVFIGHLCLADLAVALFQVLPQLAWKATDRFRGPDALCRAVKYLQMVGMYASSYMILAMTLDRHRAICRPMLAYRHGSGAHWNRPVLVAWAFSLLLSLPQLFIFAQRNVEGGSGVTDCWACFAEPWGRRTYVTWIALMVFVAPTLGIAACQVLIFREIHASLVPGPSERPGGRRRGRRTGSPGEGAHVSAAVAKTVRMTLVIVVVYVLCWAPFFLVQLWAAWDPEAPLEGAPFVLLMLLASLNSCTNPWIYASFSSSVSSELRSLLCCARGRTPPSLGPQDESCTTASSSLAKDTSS
T2 sequence (P37288 whole entry): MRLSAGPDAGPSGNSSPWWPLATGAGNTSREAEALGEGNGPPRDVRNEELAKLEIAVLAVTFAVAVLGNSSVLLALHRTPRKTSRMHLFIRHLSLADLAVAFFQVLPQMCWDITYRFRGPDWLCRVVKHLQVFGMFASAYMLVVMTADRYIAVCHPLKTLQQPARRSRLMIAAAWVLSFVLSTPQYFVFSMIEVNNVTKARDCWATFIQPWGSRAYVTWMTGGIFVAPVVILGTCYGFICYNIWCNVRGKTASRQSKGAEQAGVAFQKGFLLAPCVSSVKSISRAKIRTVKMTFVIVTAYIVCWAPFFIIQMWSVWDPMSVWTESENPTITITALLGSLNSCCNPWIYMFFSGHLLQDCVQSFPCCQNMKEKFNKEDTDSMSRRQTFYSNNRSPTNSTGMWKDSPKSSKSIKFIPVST

Regarding `NC(=O)c1nc(Cn2nc(-c3ccc(Cl)cc3)n(C[C@H](OP(=O)([O-])O)C(F)(F)F)c2=O)nn1-c1ncccc1C(F)(F)F.[K+]` [Example 2, Potassium (2S)-3-[1-({5-carbamoyl-1-[3-(trifluoromethyl)pyridin-2-yl]-1H-1,2,4-triazol-3-yl}-methyl)-3-(4-chlorophenyl)-5-oxo-1,5-dihydro-4H-1,2,4-triazol-4-yl]-1,1,1-trifluoropropan-2-yl Hydrogen Phosphate], the half-inhibitory concentration (IC50) (as a rule, the concentration needed to halve the response being measured) in experiment [1] came out at 620 nM; in experiment [2], 39.5 nM. For the same compound, in experiment [2] (Phosphate), the “ratio IC50 hV2/hV1a” value is on record as 15.7.
`NC(=O)c1nc(Cn2nc(-c3ccc(Cl)cc3)n(C[C@H](OP(=O)([O-])O)C(F)(F)F)c2=O)nn1-c1ncccc1C(F)(F)F.[K+]` [Example 3, Potassium (2S)-3-[1-({5-carbamoyl-1-[3-(trifluoromethyl)pyridin-2-yl]-1H-1,2,4-triazol-3-yl}-methyl)-3-(4-chlorophenyl)-5-oxo-1,5-dihydro-4H-1,2,4-triazol-4-yl]-1,1,1-trifluoropropan-2-yl Hydrogen Phosphate]: the results for the IC50 in experiment [1] and in experiment [2] were 123 nM and 6.15 nM, respectively. Moreover, the “ratio IC50 hV2/hV1a” value in experiment [2] (Phosphate) was found to be 20.0.
The corresponding values for `NC(=O)c1nc(Cn2nc(-c3ccc(Cl)cc3)n(C[C@H](OP(=O)([O-])O)C(F)(F)F)c2=O)nn1-c1ncccc1C(F)(F)F.[Na+]` [Example 5, Sodium (2S)-3-[1-({5-carbamoyl-1-[3-(trifluoromethyl)pyridin-2-yl]-1H-1,2,4-triazol-3-yl}-methyl)-3-(4-chlorophenyl)-5-oxo-1,5-dihydro-4H-1,2,4-triazol-4-yl]-1,1,1-trifluoropropan-2-yl Hydrogen Phosphate] are 85 nM, 5.05 nM and 16.8.
Consider `NC(=O)c1nc(Cn2nc(-c3ccc(Cl)cc3)n(C[C@H](OP(=O)([O-])[O-])C(F)(F)F)c2=O)nn1-c1ncccc1C(F)(F)F.[Ca+2]` [Example 8, Calcium (2S)-3-[1-({5-carbamoyl-1-[3-(trifluoromethyl)pyridin-2-yl]-1H-1,2,4-triazol-3-yl}-methyl)-3-(4-chlorophenyl)-5-oxo-1,5-dihydro-4H-1,2,4-triazol-4-yl]-1,1,1-trifluoropropan-2-yl Phosphate], for which the concentration for half-maximal inhibition (IC50) in experiment [1] stood at 145 nM. Further, in experiment [2], the concentration for half-maximal inhibition (IC50) amounted to 17 nM and the “ratio IC50 hV2/hV1a” value was 8.5.
Consider `NC(=O)c1nc(Cn2nc(-c3ccc(Cl)cc3)n(C[C@H](OP(=O)([O-])O)C(F)(F)F)c2=O)nn1-c1ccccc1C(F)(F)F.[K+]` [Example 11, Potassium (2S)-3-[1-({5-carbamoyl-1-[2-(trifluoromethyl)phenyl]-1H-1,2,4-triazol-3-yl}methyl)-3-(4-chlorophenyl)-5-oxo-1,5-dihydro-4H-1,2,4-triazol-4-yl]-1,1,1-trifluoropropan-2-yl Hydrogen Phosphate], for which the figures for the IC50 in experiment [1] and in experiment [2] were 37 nM and 40.5 nM, respectively. In experiment [2] (Phosphate), the “ratio IC50 hV2/hV1a” value is reported as 0.9.
Take `NC(=O)c1nc(Cn2nc(-c3ccc(Cl)cc3)n(C[C@H](OP(=O)([O-])O)C(F)(F)F)c2=O)nn1-c1ccccc1C(F)(F)F.[K+]` [Example 12, Potassium (2S)-3-[1-({5-carbamoyl-1-[2-(trifluoromethyl)phenyl]-1H-1,2,4-triazol-3-yl}methyl)-3-(4-chlorophenyl)-5-oxo-1,5-dihydro-4H-1,2,4-triazol-4-yl]-1,1,1-trifluoropropan-2-yl Hydrogen Phosphate]: the values for the IC50 in experiment [1] and in experiment [2] were 24 nM and 16.5 nM, respectively. For the same compound, the “ratio IC50 hV2/hV1a” value in experiment [2] (Phosphate) is 1.5.
Consider `NC(=O)c1nc(Cn2nc(-c3ccc(Cl)cc3)n(C[C@H](OP(=O)([O-])O)C(F)(F)F)c2=O)nn1-c1ccccc1C(F)(F)F.[Na+]` [Example 13, Sodium (2S)-3-[1-({5-carbamoyl-1-[2-(trifluoromethyl)phenyl]-1H-1,2,4-triazol-3-yl}methyl)-3-(4-chlorophenyl)-5-oxo-1,5-dihydro-4H-1,2,4-triazol-4-yl]-1,1,1-trifluoropropan-2-yl Hydrogen Phosphate], for which the IC50 was 26.5 nM in experiment [1] and 19 nM in experiment [2]. The “ratio IC50 hV2/hV1a” value in experiment [2] (Phosphate) is 1.4.
On to `NC(=O)c1nc(Cn2nc(-c3ccc(Cl)cc3)n(C[C@H](OP(=O)([O-])O)C(F)(F)F)c2=O)nn1-c1ccccc1C(F)(F)F.[Na+]` [Example 14, Sodium (2S)-3-[1-({5-carbamoyl-1-[2-(trifluoromethyl)phenyl]-1H-1,2,4-triazol-3-yl}methyl)-3-(4-chlorophenyl)-5-oxo-1,5-dihydro-4H-1,2,4-triazol-4-yl]-1,1,1-trifluoropropan-2-yl Hydrogen Phosphate], for which the results for the 50% inhibitory concentration (IC50) in experiment [1] and in experiment [2] were 18.5 nM and 19 nM, respectively. In experiment [2] (Phosphate), the “ratio IC50 hV2/hV1a” value amounted to 1.0.
Turning to `NC(=O)c1nc(Cn2nc(-c3ccc(Cl)cc3)n(C[C@H](OP(=O)([O-])[O-])C(F)(F)F)c2=O)nn1-c1ccccc1C(F)(F)F.[Mg+2]` [Example 15, Magnesium (2S)-3-[1-({5-carbamoyl-1-[2-(trifluoromethyl)phenyl]-1H-1,2,4-triazol-3-yl}methyl)-3-(4-chlorophenyl)-5-oxo-1,5-dihydro-4H-1,2,4-triazol-4-yl]-1,1,1-trifluoropropan-2-yl Phosphate], in experiment [1], the IC50 amounted to 21 nM. Besides, in experiment [2], the concentration for half-maximal inhibition (IC50) amounted to 19.5 nM and the “ratio IC50 hV2/hV1a” value was determined as 1.1.
In the case of `NC(=O)c1nc(Cn2nc(-c3ccc(Cl)cc3)n(C[C@H](OP(=O)([O-])[O-])C(F)(F)F)c2=O)nn1-c1ccccc1C(F)(F)F.[Ca+2]` [Example 16, Calcium (2S)-3-[1-({5-carbamoyl-1-[2-(trifluoromethyl)phenyl]-1H-1,2,4-triazol-3-yl}methyl)-3-(4-chlorophenyl)-5-oxo-1,5-dihydro-4H-1,2,4-triazol-4-yl]-1,1,1-trifluoropropan-2-yl Phosphate], the values for the IC50 in experiment [1] and in experiment [2] were 30.5 nM and 29 nM, respectively. Further, the “ratio IC50 hV2/hV1a” value in experiment [2] turned out to be 1.1.
As to `NC(=O)c1nc(Cn2nc(-c3ccc(Cl)cc3)n(C[C@H](OP(=O)([O-])O)C(F)(F)F)c2=O)nn1-c1ncccc1Cl.[K+]` [Example 18, Potassium (2S)-3-[1-{[5-carbamoyl-1-(3-chloropyridin-2-yl)-1H-1,2,4-triazol-3-yl]methyl}-3-(4-chlorophenyl)-5-oxo-1,5-dihydro-4H-1,2,4-triazol-4-yl]-1,1,1-trifluoropropan-2-yl Hydrogen Phosphate], the IC50 in experiment [1] amounted to 84 nM; in experiment [2], 33.5 nM. Further, the “ratio IC50 hV2/hV1a” value in experiment [2] (Phosphate) is 2.5.
With `NC(=O)c1nc(Cn2nc(-c3ccc(Cl)cc3)n(C[C@H](OP(=O)([O-])O)C(F)(F)F)c2=O)nn1-c1ncccc1Cl.[K+]` [Example 19, Potassium (2S)-3-[1-{[5-carbamoyl-1-(3-chloropyridin-2-yl)-1H-1,2,4-triazol-3-yl]methyl}-3-(4-chlorophenyl)-5-oxo-1,5-dihydro-4H-1,2,4-triazol-4-yl]-1,1,1-trifluoropropan-2-yl Hydrogen Phosphate], the IC50 in experiment [1] is 51 nM; in experiment [2], 24 nM. Moreover, the “ratio IC50 hV2/hV1a” value in experiment [2] (Phosphate) was determined as 2.1.
